The values below are quoted from earlier work in patent publication US20050182136A1, “N-acetylcysteine compositions and methods for the treatment and prevention of endothelial dysfunction” (priority 2004, published 2005).

For series [1] the following is noted: animal experiments, daily NAC dose of 150 mg/kg, over no treatment.
For series [2] the following is noted: oral NAC, intravenous contrast agents.
The conditions of series [3]: patients with end-stage renal failure, 600 mg twice a day.
For series [4] the following is noted: relative to NAC.

Turning to `CC(=O)N[C@@H](CS)C(=O)O` [NAC, N-acetylcysteine], in series [1], the cysteine levels entry is listed as “substantially increase” and the glutathione levels entry was “substantially increase”. Besides, the “increase of serum creatinine after the administration of the contrast agent” value in series [2] is “significant reduction”. For the same compound, in series [3], the “various adverse cardiovascular events” value was “significantly reduced”.
As for `CC(=O)N[C@@H](CSSC[C@H](NC(C)=O)C(=O)O)C(=O)O` [oxidized form of NAC, di-N-acetylcysteine], the “bioactive at doses less than NAC” value in series [4] is reported as 10-100 fold.
